# Measured values reported in the supplement of paper PMC8882468.
# System: HCI-016 (organoid from a triple-negative breast cancer xenograft)
# Assay: CTG-3D luminescence at 96 h relative to day-0 seeding control (ratio to day 0); higher = more growth / less cytotoxicity; PDxO 3D drug screen (set 2), 96 h, CTG-3D normalised to day-0 seeding control.
# Conditions: 100 µM; days in culture: 305
row,Structure (SMILES),CTG-3D luminescence at 96 h
1,CCOc1ccn(-c2ccc(F)cc2)c(=O)c1C(=O)Nc1ccc(Oc2ccnc(N)c2Cl)c(F)c1 [ASLAN002],2.68
2,C[C@@H](Nc1cc(F)cc(F)c1)c1cc(C(=O)N(C)C)cc2c(=O)cc(N3CCOCC3)oc12 [AZD-8186],1.51
3,COc1cccc2c1C(=O)c1c(O)c3c(c(O)c1C2=O)C[C@@](O)(C(=O)CO)C[C@@H]3O[C@H]1C[C@H](N)[C@@H](O)[C@H](C)O1 [epirubicin],-0.0142
4,CC(=O)c1c(C)c2cnc(Nc3ccc(N4CCNCC4)cn3)nc2n(C2CCCC2)c1=O [palbociclib],2.12
5,O=C(c1cc(Cc2n[nH]c(=O)c3ccccc23)ccc1F)N1CCN(C(=O)C2CC2)CC1 [olaparib],0.878

# Same assay, conditions: 100 µM; days in culture: 327
row,Structure (SMILES),CTG-3D luminescence at 96 h
1,CCOc1ccn(-c2ccc(F)cc2)c(=O)c1C(=O)Nc1ccc(Oc2ccnc(N)c2Cl)c(F)c1 [ASLAN002],1.05
2,C[C@@H](Nc1cc(F)cc(F)c1)c1cc(C(=O)N(C)C)cc2c(=O)cc(N3CCOCC3)oc12 [AZD-8186],0.672
3,COc1cccc2c1C(=O)c1c(O)c3c(c(O)c1C2=O)C[C@@](O)(C(=O)CO)C[C@@H]3O[C@H]1C[C@H](N)[C@@H](O)[C@H](C)O1 [epirubicin],-0.00792
4,CC(=O)c1c(C)c2cnc(Nc3ccc(N4CCNCC4)cn3)nc2n(C2CCCC2)c1=O [palbociclib],0.478
5,O=C(c1cc(Cc2n[nH]c(=O)c3ccccc23)ccc1F)N1CCN(C(=O)C2CC2)CC1 [olaparib],1.23

# Same assay, conditions: 100 µM; days in culture: 341
row,Structure (SMILES),CTG-3D luminescence at 96 h
1,CCOc1ccn(-c2ccc(F)cc2)c(=O)c1C(=O)Nc1ccc(Oc2ccnc(N)c2Cl)c(F)c1 [ASLAN002],0.676
2,C[C@@H](Nc1cc(F)cc(F)c1)c1cc(C(=O)N(C)C)cc2c(=O)cc(N3CCOCC3)oc12 [AZD-8186],0.88
3,COc1cccc2c1C(=O)c1c(O)c3c(c(O)c1C2=O)C[C@@](O)(C(=O)CO)C[C@@H]3O[C@H]1C[C@H](N)[C@@H](O)[C@H](C)O1 [epirubicin],-0.00358
4,CC(=O)c1c(C)c2cnc(Nc3ccc(N4CCNCC4)cn3)nc2n(C2CCCC2)c1=O [palbociclib],0.71
5,O=C(c1cc(Cc2n[nH]c(=O)c3ccccc23)ccc1F)N1CCN(C(=O)C2CC2)CC1 [olaparib],0.982

# Same assay, conditions: 100 µM; days in culture: 397
row,Structure (SMILES),CTG-3D luminescence at 96 h
1,CCOc1ccn(-c2ccc(F)cc2)c(=O)c1C(=O)Nc1ccc(Oc2ccnc(N)c2Cl)c(F)c1 [ASLAN002],0.779
2,C[C@@H](Nc1cc(F)cc(F)c1)c1cc(C(=O)N(C)C)cc2c(=O)cc(N3CCOCC3)oc12 [AZD-8186],0.71
3,COc1cccc2c1C(=O)c1c(O)c3c(c(O)c1C2=O)C[C@@](O)(C(=O)CO)C[C@@H]3O[C@H]1C[C@H](N)[C@@H](O)[C@H](C)O1 [epirubicin],-0.000737
4,CC(=O)c1c(C)c2cnc(Nc3ccc(N4CCNCC4)cn3)nc2n(C2CCCC2)c1=O [palbociclib],0.831
5,O=C(c1cc(Cc2n[nH]c(=O)c3ccccc23)ccc1F)N1CCN(C(=O)C2CC2)CC1 [olaparib],0.249

# Same assay, conditions: 625 fM; days in culture: 305
row,Structure (SMILES),CTG-3D luminescence at 96 h
1,CCOc1ccn(-c2ccc(F)cc2)c(=O)c1C(=O)Nc1ccc(Oc2ccnc(N)c2Cl)c(F)c1 [ASLAN002],3.43
2,C[C@@H](Nc1cc(F)cc(F)c1)c1cc(C(=O)N(C)C)cc2c(=O)cc(N3CCOCC3)oc12 [AZD-8186],4.97
3,COc1cccc2c1C(=O)c1c(O)c3c(c(O)c1C2=O)C[C@@](O)(C(=O)CO)C[C@@H]3O[C@H]1C[C@H](N)[C@@H](O)[C@H](C)O1 [epirubicin],3.33
4,CC(=O)c1c(C)c2cnc(Nc3ccc(N4CCNCC4)cn3)nc2n(C2CCCC2)c1=O [palbociclib],3.73
5,O=C(c1cc(Cc2n[nH]c(=O)c3ccccc23)ccc1F)N1CCN(C(=O)C2CC2)CC1 [olaparib],3.99

# Same assay, conditions: 625 fM; days in culture: 327
row,Structure (SMILES),CTG-3D luminescence at 96 h
1,CCOc1ccn(-c2ccc(F)cc2)c(=O)c1C(=O)Nc1ccc(Oc2ccnc(N)c2Cl)c(F)c1 [ASLAN002],1.72
2,C[C@@H](Nc1cc(F)cc(F)c1)c1cc(C(=O)N(C)C)cc2c(=O)cc(N3CCOCC3)oc12 [AZD-8186],1.61
3,COc1cccc2c1C(=O)c1c(O)c3c(c(O)c1C2=O)C[C@@](O)(C(=O)CO)C[C@@H]3O[C@H]1C[C@H](N)[C@@H](O)[C@H](C)O1 [epirubicin],1.16
4,CC(=O)c1c(C)c2cnc(Nc3ccc(N4CCNCC4)cn3)nc2n(C2CCCC2)c1=O [palbociclib],1.3
5,O=C(c1cc(Cc2n[nH]c(=O)c3ccccc23)ccc1F)N1CCN(C(=O)C2CC2)CC1 [olaparib],1.74

# Same assay, conditions: 625 fM; days in culture: 341
row,Structure (SMILES),CTG-3D luminescence at 96 h
1,CCOc1ccn(-c2ccc(F)cc2)c(=O)c1C(=O)Nc1ccc(Oc2ccnc(N)c2Cl)c(F)c1 [ASLAN002],2.26
2,C[C@@H](Nc1cc(F)cc(F)c1)c1cc(C(=O)N(C)C)cc2c(=O)cc(N3CCOCC3)oc12 [AZD-8186],2.55
3,COc1cccc2c1C(=O)c1c(O)c3c(c(O)c1C2=O)C[C@@](O)(C(=O)CO)C[C@@H]3O[C@H]1C[C@H](N)[C@@H](O)[C@H](C)O1 [epirubicin],2.49
4,CC(=O)c1c(C)c2cnc(Nc3ccc(N4CCNCC4)cn3)nc2n(C2CCCC2)c1=O [palbociclib],2.48
5,O=C(c1cc(Cc2n[nH]c(=O)c3ccccc23)ccc1F)N1CCN(C(=O)C2CC2)CC1 [olaparib],2.44

# Same assay, conditions: 625 fM; days in culture: 397
row,Structure (SMILES),CTG-3D luminescence at 96 h
1,CCOc1ccn(-c2ccc(F)cc2)c(=O)c1C(=O)Nc1ccc(Oc2ccnc(N)c2Cl)c(F)c1 [ASLAN002],2.52
2,C[C@@H](Nc1cc(F)cc(F)c1)c1cc(C(=O)N(C)C)cc2c(=O)cc(N3CCOCC3)oc12 [AZD-8186],2.46
3,COc1cccc2c1C(=O)c1c(O)c3c(c(O)c1C2=O)C[C@@](O)(C(=O)CO)C[C@@H]3O[C@H]1C[C@H](N)[C@@H](O)[C@H](C)O1 [epirubicin],3
4,CC(=O)c1c(C)c2cnc(Nc3ccc(N4CCNCC4)cn3)nc2n(C2CCCC2)c1=O [palbociclib],2.9
5,O=C(c1cc(Cc2n[nH]c(=O)c3ccccc23)ccc1F)N1CCN(C(=O)C2CC2)CC1 [olaparib],2.79

# System: HCI-024 (organoid from a breast cancer xenograft)
# Assay: as above
# Conditions: 12.5 pM; days in culture: 202
row,Structure (SMILES),CTG-3D luminescence at 96 h
1,CCOc1ccn(-c2ccc(F)cc2)c(=O)c1C(=O)Nc1ccc(Oc2ccnc(N)c2Cl)c(F)c1 [ASLAN002],1.14
2,C[C@@H](Nc1cc(F)cc(F)c1)c1cc(C(=O)N(C)C)cc2c(=O)cc(N3CCOCC3)oc12 [AZD-8186],1.88
3,COc1cccc2c1C(=O)c1c(O)c3c(c(O)c1C2=O)C[C@@](O)(C(=O)CO)C[C@@H]3O[C@H]1C[C@H](N)[C@@H](O)[C@H](C)O1 [epirubicin],1.44
4,CC(=O)c1c(C)c2cnc(Nc3ccc(N4CCNCC4)cn3)nc2n(C2CCCC2)c1=O [palbociclib],0.831
5,O=C(c1cc(Cc2n[nH]c(=O)c3ccccc23)ccc1F)N1CCN(C(=O)C2CC2)CC1 [olaparib],0.819

# Same assay, conditions: 12.5 pM; days in culture: 231
row,Structure (SMILES),CTG-3D luminescence at 96 h
1,CCOc1ccn(-c2ccc(F)cc2)c(=O)c1C(=O)Nc1ccc(Oc2ccnc(N)c2Cl)c(F)c1 [ASLAN002],0.919
2,C[C@@H](Nc1cc(F)cc(F)c1)c1cc(C(=O)N(C)C)cc2c(=O)cc(N3CCOCC3)oc12 [AZD-8186],1.33
3,COc1cccc2c1C(=O)c1c(O)c3c(c(O)c1C2=O)C[C@@](O)(C(=O)CO)C[C@@H]3O[C@H]1C[C@H](N)[C@@H](O)[C@H](C)O1 [epirubicin],1.26
4,CC(=O)c1c(C)c2cnc(Nc3ccc(N4CCNCC4)cn3)nc2n(C2CCCC2)c1=O [palbociclib],0.919
5,O=C(c1cc(Cc2n[nH]c(=O)c3ccccc23)ccc1F)N1CCN(C(=O)C2CC2)CC1 [olaparib],0.787

# Same assay, conditions: 12.5 pM; days in culture: 254
row,Structure (SMILES),CTG-3D luminescence at 96 h
1,CCOc1ccn(-c2ccc(F)cc2)c(=O)c1C(=O)Nc1ccc(Oc2ccnc(N)c2Cl)c(F)c1 [ASLAN002],2.48
2,C[C@@H](Nc1cc(F)cc(F)c1)c1cc(C(=O)N(C)C)cc2c(=O)cc(N3CCOCC3)oc12 [AZD-8186],1.17
3,COc1cccc2c1C(=O)c1c(O)c3c(c(O)c1C2=O)C[C@@](O)(C(=O)CO)C[C@@H]3O[C@H]1C[C@H](N)[C@@H](O)[C@H](C)O1 [epirubicin],1.76
4,CC(=O)c1c(C)c2cnc(Nc3ccc(N4CCNCC4)cn3)nc2n(C2CCCC2)c1=O [palbociclib],1.24
5,O=C(c1cc(Cc2n[nH]c(=O)c3ccccc23)ccc1F)N1CCN(C(=O)C2CC2)CC1 [olaparib],1.65

# Same assay, conditions: 0.00025 µM; days in culture: 202
row,Structure (SMILES),CTG-3D luminescence at 96 h
1,CCOc1ccn(-c2ccc(F)cc2)c(=O)c1C(=O)Nc1ccc(Oc2ccnc(N)c2Cl)c(F)c1 [ASLAN002],1.03
2,C[C@@H](Nc1cc(F)cc(F)c1)c1cc(C(=O)N(C)C)cc2c(=O)cc(N3CCOCC3)oc12 [AZD-8186],0.916
3,COc1cccc2c1C(=O)c1c(O)c3c(c(O)c1C2=O)C[C@@](O)(C(=O)CO)C[C@@H]3O[C@H]1C[C@H](N)[C@@H](O)[C@H](C)O1 [epirubicin],1.41
4,CC(=O)c1c(C)c2cnc(Nc3ccc(N4CCNCC4)cn3)nc2n(C2CCCC2)c1=O [palbociclib],0.703
5,O=C(c1cc(Cc2n[nH]c(=O)c3ccccc23)ccc1F)N1CCN(C(=O)C2CC2)CC1 [olaparib],0.984

# Same assay, conditions: 0.00025 µM; days in culture: 231
row,Structure (SMILES),CTG-3D luminescence at 96 h
1,CCOc1ccn(-c2ccc(F)cc2)c(=O)c1C(=O)Nc1ccc(Oc2ccnc(N)c2Cl)c(F)c1 [ASLAN002],1.2
2,C[C@@H](Nc1cc(F)cc(F)c1)c1cc(C(=O)N(C)C)cc2c(=O)cc(N3CCOCC3)oc12 [AZD-8186],1.25
3,COc1cccc2c1C(=O)c1c(O)c3c(c(O)c1C2=O)C[C@@](O)(C(=O)CO)C[C@@H]3O[C@H]1C[C@H](N)[C@@H](O)[C@H](C)O1 [epirubicin],1.41
4,CC(=O)c1c(C)c2cnc(Nc3ccc(N4CCNCC4)cn3)nc2n(C2CCCC2)c1=O [palbociclib],0.896
5,O=C(c1cc(Cc2n[nH]c(=O)c3ccccc23)ccc1F)N1CCN(C(=O)C2CC2)CC1 [olaparib],0.983

# Same assay, conditions: 0.00025 µM; days in culture: 254
row,Structure (SMILES),CTG-3D luminescence at 96 h
1,CCOc1ccn(-c2ccc(F)cc2)c(=O)c1C(=O)Nc1ccc(Oc2ccnc(N)c2Cl)c(F)c1 [ASLAN002],0.889
2,C[C@@H](Nc1cc(F)cc(F)c1)c1cc(C(=O)N(C)C)cc2c(=O)cc(N3CCOCC3)oc12 [AZD-8186],1.68
3,COc1cccc2c1C(=O)c1c(O)c3c(c(O)c1C2=O)C[C@@](O)(C(=O)CO)C[C@@H]3O[C@H]1C[C@H](N)[C@@H](O)[C@H](C)O1 [epirubicin],2
4,CC(=O)c1c(C)c2cnc(Nc3ccc(N4CCNCC4)cn3)nc2n(C2CCCC2)c1=O [palbociclib],1.36
5,O=C(c1cc(Cc2n[nH]c(=O)c3ccccc23)ccc1F)N1CCN(C(=O)C2CC2)CC1 [olaparib],1.41

# Same assay, conditions: 0.005 µM; days in culture: 202
row,Structure (SMILES),CTG-3D luminescence at 96 h
1,CCOc1ccn(-c2ccc(F)cc2)c(=O)c1C(=O)Nc1ccc(Oc2ccnc(N)c2Cl)c(F)c1 [ASLAN002],1.19
2,C[C@@H](Nc1cc(F)cc(F)c1)c1cc(C(=O)N(C)C)cc2c(=O)cc(N3CCOCC3)oc12 [AZD-8186],0.693
3,COc1cccc2c1C(=O)c1c(O)c3c(c(O)c1C2=O)C[C@@](O)(C(=O)CO)C[C@@H]3O[C@H]1C[C@H](N)[C@@H](O)[C@H](C)O1 [epirubicin],0.402
4,CC(=O)c1c(C)c2cnc(Nc3ccc(N4CCNCC4)cn3)nc2n(C2CCCC2)c1=O [palbociclib],1.17
5,O=C(c1cc(Cc2n[nH]c(=O)c3ccccc23)ccc1F)N1CCN(C(=O)C2CC2)CC1 [olaparib],0.907

# Same assay, conditions: 0.005 µM; days in culture: 231
row,Structure (SMILES),CTG-3D luminescence at 96 h
1,CCOc1ccn(-c2ccc(F)cc2)c(=O)c1C(=O)Nc1ccc(Oc2ccnc(N)c2Cl)c(F)c1 [ASLAN002],1.13
2,C[C@@H](Nc1cc(F)cc(F)c1)c1cc(C(=O)N(C)C)cc2c(=O)cc(N3CCOCC3)oc12 [AZD-8186],1.21
3,COc1cccc2c1C(=O)c1c(O)c3c(c(O)c1C2=O)C[C@@](O)(C(=O)CO)C[C@@H]3O[C@H]1C[C@H](N)[C@@H](O)[C@H](C)O1 [epirubicin],1.2
4,CC(=O)c1c(C)c2cnc(Nc3ccc(N4CCNCC4)cn3)nc2n(C2CCCC2)c1=O [palbociclib],1.34
5,O=C(c1cc(Cc2n[nH]c(=O)c3ccccc23)ccc1F)N1CCN(C(=O)C2CC2)CC1 [olaparib],0.972
